Test results: publication PMC5802278, “Molecular and cellular mechanisms of HIF prolyl hydroxylase inhibitors in clinical trials” (Chemical Science, 2017)
Read-outs that look alike come from different tables or passages of the source.

Assays:
[1] = tested on: patients with ESRD on haemodialysis and previously with Epoetin Alfa; parameters: method as in ref 38 (a number printed in a supplementary file, which may have a reference list of its own: not looked up in the article's list); conditions: TIW, 7 weeks, cited from earlier work
PHD2 [2] = target: T1, PHD2 (Homo sapiens, UniProt Q9GZT9); test: MALDI-TOF MS PHD hydroxylation assay; format: biochemical; conditions: 1μM isolated recombinant human PHD2, MALDI-TOF MS
T1 sequence (Q9GZT9 whole entry): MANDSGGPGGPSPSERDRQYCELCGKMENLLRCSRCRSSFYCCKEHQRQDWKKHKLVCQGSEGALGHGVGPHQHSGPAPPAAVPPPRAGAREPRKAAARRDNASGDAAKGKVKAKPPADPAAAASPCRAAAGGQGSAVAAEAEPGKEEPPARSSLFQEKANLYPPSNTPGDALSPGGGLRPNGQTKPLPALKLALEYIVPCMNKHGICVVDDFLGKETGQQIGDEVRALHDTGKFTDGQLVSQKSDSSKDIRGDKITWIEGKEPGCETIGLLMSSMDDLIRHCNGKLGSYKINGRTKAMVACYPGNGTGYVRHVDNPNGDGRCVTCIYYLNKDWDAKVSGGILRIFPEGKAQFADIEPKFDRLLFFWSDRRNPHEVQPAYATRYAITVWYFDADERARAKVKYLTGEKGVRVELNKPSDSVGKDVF
Description: Protocols for in vitro PHD1–3 MALDI-TOF MS hydroxylation assays[30] and for the AlphaScreen histone demethylase assays[44] were as reported.
Although sharing homologous C-terminal catalytic domains, the N-terminal regions of PHD1–3 vary. […] In vitro inhibition assays of the clinical trial PHD inhibitors (and some of their structurally related analogue) against 1 μM recombinant human PHD1–3 were performed.
Fig. S11. In vitro PHD isoform selectivity profiling of PHD inhibitors. Inhibition of PHD inhibitors against human PHD125 -3 as assayed by MALDI-TOF MS (the protocol is described in Chan et al. ). Eight concentrations were used to obtained dose-response curve for each compound. Data points presented in the graph are mean with standard deviation, n=3. IC50 […]
(1 picture or pasted object on this page, not shown here)

PHD2 [3] = target: T1, PHD2; test: LC-MS based RapidFire PHD2 hydroxylation assay; format: biochemical; conditions: 150 nM isolated recombinant human PHD2, LC-MS based RapidFire assay
Description: LC-MS PHD2 hydroxylation assays
The PHD2 RF-MS RapidFire liquid chromatography mass spectrometry (RF-MS) assay monitors turnover of a C-terminal oxygenase dependent domain (CODD) peptide substrate
(Pro564) in an endpoint type assay format (typical enzyme incubation time of 15 minutes).
Tris(hydroxymethyl)aminomethane was from Fisher. Ferrous ammonium sulfate (FAS), 2-oxoglutarate (2OG) and L-ascorbic acid were from Sigma Aldrich; solutions of these were prepared freshly each day. All inhibition assays were carried out in 384-well polypropylene plates (Greiner Bio-One). PHD2 assays were performed in assay buffer (50 mM Tris.Cl pH
well polypropylene assay plates. The final assay concentration of DMSO was kept constant at 0.5%. PHD2 protein was prepared at a concentration of 300 nM in assay buffer and 25 μl dispensed across each 384-well assay plate. […]
water containing 0.1% formic acid onto the mass spectrometer. Peptide charge states were monitored in positive mode. Ion chromatogram data were extracted for the +2 charge state and peak area data integrated using RapidFire Integrator software (Agilent). % conversion of the CODD peptide substrate to the +16 hydroxylated peptide was calculated using the equation: % conversion = 100 x hydroxylated / (hydroxylated + non-hydroxylated peptide). IC50 values were determined from non-linear regression plots using GraphPad prism.

[4] = target: T2, PHD2 catalytic domain (residues 181-426) (Homo sapiens, UniProt Q9GZT9); test: AlphaScreen antibody based PHD2 assay (HIF-1α CODD peptide hydroxylation); format: biochemical; parameters: 10 nM PHD2 (catalytic domain, residues 181–426); made in house; conditions: AlphaScreen; 5 nM PHD2, 2 μM 2OG, 60 nM biotinylated CODD peptide; read-out: IC50 PHD2
T2 sequence (Q9GZT9 181-426): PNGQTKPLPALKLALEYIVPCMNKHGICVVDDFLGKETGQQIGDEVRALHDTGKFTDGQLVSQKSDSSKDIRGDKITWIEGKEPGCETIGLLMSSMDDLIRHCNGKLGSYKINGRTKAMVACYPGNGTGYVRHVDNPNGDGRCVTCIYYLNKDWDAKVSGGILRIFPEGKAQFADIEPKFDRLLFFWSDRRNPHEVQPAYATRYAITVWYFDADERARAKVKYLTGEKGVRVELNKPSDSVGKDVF
Description: AlphaScreen antibody based PHD assays were as reported[39] using 384-well white ProxiPlates™ (PerkinElmer). Reactions were performed in 50 mM HEPES buffer pH 7.5, 0.01% Tween-20 and 0.1% BSA in a final volume of 10 μL at room temperature. […] The luminescence signal was measured using an Envision (Perkin Elmer) plate reader. Data were analyzed utilizing GraphPad prism.

[5] = target: T2, PHD2 catalytic domain (residues 181-426); test: NMR KD measurement (2OG displacement or water relaxation); format: binding; parameters: The catalytic domain of human PHD2 (residues 181-426) was used in all; made in house; conditions: water relaxation or 2OG displacement
Description: Water-Ligand Observed Gradient SpectroscopY (wLOGSY) experiments were conducted […]
Solvent excitation was achieved using a 16 ms 180 degree selective rectangular shape pulse with 100% truncation level and 1000 points (Squa100.1000) set at the H2O frequency. Water suppression was achieved by a 2 ms Sinc (Sinc1.1000) pulse at the H2O frequency.
2OG displacement experiments were monitored by CPMG-edited 1H NMR using a Bruker […]
supplemented with 60 µM Zn(II) and increasing concentrations of the inhibitors from a […]
(90°x−[τ−180°y−τ−90°y−τ−180°y−τ]n−acq), was applied. Typical experimental parameters were […]
suppression was achieved by presaturation.
For 13C-CODD and […] displacement experiments, 1D Clean In-Phase (CLIP) HSQC with selective 13C-inversion displacement experiments were conducted using a Bruker AV700 instrument. 3 mm MATCH NMR tubes were used (Cortecnet). All experiments were […]
prolyl-ring. 7 The CLIP-HSQC sequence was used for 1D HSQC experiments (without 13C decoupling).8 Relaxation delay was 2s. The 1JCH was set to 160 Hz. A 6.8 ms Q3.1000 180 degree pulse was used and selective irradiation was applied at the selected chemical shift. […]
Samples were prepared by mixing reaction mixture (1 μL) with α-cyano-4-hydrocinnamic acid (CHCA) solution (water:acetonitrile 1:1) (1 μL). Dose-response was assessed in 8-point […]

| SMILES | Hb levels maintained ([1]; high-dose cohort) | Hb levels maintained ([1]; low-dose cohort) | Hb levels maintained ([1]; medium-dose cohort) | IC50 (PHD2 [2]) | IC50 (PHD2 [3]) | IC50 [4] | KD [5] |
| --- | --- | --- | --- | --- | --- | --- | --- |
| Cc1nc(C(=O)NCC(=O)O)c(O)c2ccc(Oc3ccccc3)cc12 [FG-4592] | 100% | 59.1% | 88.9% |  |  |  |  |
| O=c1c(-n2ccnn2)c[nH]n1-c1cc(N2CCOCC2)ncn1 [Molidustat] |  |  |  | 1850 nM | 1320 nM | 7 nM | sub-μM range |
| CC(C)(C)OC(=O)c1ccc(-n2[nH]cc(-n3ccnn3)c2=O)nc1 [IOX4] |  |  |  | 940 nM | 540 nM | 3 nM | sub-μM range |
